Test results: paper PMC6308159 (Frontiers in Public Health, 2018)
Where “and” joins values, the source holds several entries; their conditions need not be identical. Equal entries are not always repeated. Where two headings read alike, the source gives them in different places.

Tests used:
[1] = system: primary human endothelial colony-forming cells (ECFCs), cord blood clones
in vitro = settings: human
[2] = cited from earlier work
[3] = system: primary human endothelial colony-forming cells (ECFCs), cord blood clones; assay: cells; settings: read-out: IC50, range between individual ECFC clones
[4] = system: polyclonal ECFC line CB002; assay type: cell-based, human; settings: 0.390625 μM; 48 h
[5] = read-out: IC50, range between individual ECFC clones

Q: With O.[Cl][Cd][Cl] [CdCl2, Cadmium Chloride Hydrate] as the compound, how does the “IC10, range between individual ECFC clones” value [1] read?
A: 4.2 to 9.3 µM

Q: And the “average IC10 (mean and standard deviation)” value [1]?
A: 6.7 ± 1.85 µM

Q: What about the cells killed [1] of the same compound?
A: ~100%

Q: What about the cytotoxicity [1] of the same compound?
A: not cytotoxic

Q: What about the IC50 [1, 5] of the same compound?
A: 12.3 to 18 µM

Q: For CC1=CC(=O)c2ccccc2C1=O [Menadione, 2-methyl-1,4-naphthoquinone, reference compound], which “IC10, range between individual ECFC clones” value [1] is on record?
A: 5.6 to 19.0 µM

Q: And the “average IC10 (mean and standard deviation)” value [1]?
A: 11.5 ± 5.03 µM

Q: What about the cells killed [1] of the same compound?
A: 100%

Q: And the live cells [1]?
A: < 50%

Q: What about the viability at 10 µM (in vitro) of the same compound?
A: 100%

Q: What about the blood level ([2]; observed in a clinical setting) of the same compound?
A: 500 to 2000 nM

Q: And the “level found in the blood” value ([2]; volunteers after ingestion of 10 mg menadione sodium bisulfite tablets)?
A: 20 nM

Q: And the IC50 [3]?
A: 8 to 26.3 µM

Q: Which results are given for O.O.O.O.O.O.O.O=[As]([O-])([O-])O.[Na+].[Na+] [Na2HAsO4, Sodium arsenate dibasic heptahydrate]?
A: cells killed [1]: 0%; effect on ECFC viability / toxicity [1]: no effect

Q: With O=[As][O-].[Na+] [NaAsO2, Sodium (meta)arsenite] as the compound, how does the “IC10, range between individual ECFC clones” value [1] read?
A: 1.1 to 5.0 µM

Q: And the “average IC10 (mean and standard deviation)” value [1]?
A: 2.4 ± 1.16 µM

Q: What about the cells killed [1] of the same compound?
A: 100%

Q: And the IC50 ([1]; read-out: IC50 ± SD)?
A: 7.5 ± 4.7 µM

Q: And the “raw CFDA fluorescence per well” value [4]?
A: 4689 and 4248 and 2550 and 2844 and 2369 and 3435

Q: For CC1=C(C/C=C(\C)CCC[C@H](C)CCC[C@H](C)CCCC(C)C)C(=O)c2ccccc2C1=O [Phytonadione, phytonadione, reference compound], which “effect on ECFC viability / toxicity” value [1] is on record?
A: not toxic

Q: Which “IC10, range between individual ECFC clones” value [1] does the source give for CCC[CH2][Sn]([Cl])([CH2]CCC)[CH2]CCC [TBT, Tributyltin Chloride] here?
A: 0.2 to 0.5 µM

Q: And the “average IC10 (mean and standard deviation)” value [1]?
A: 0.3 ± 0.11 µM

Q: And the IC50 [1, 5]?
A: 1.2 to 2.3 µM

Q: Which results are given for [Cl-].[Cl-].[Zn+2] [ZnCl2, Zinc Chloride]?
A: cytotoxicity [1]: cytotoxic; effect on viability [1]: did not affect viability
